Data taken from US5840684A, “Glycopeptide antibiotic derivatives” (Eli Lilly and Company, priority 1995, dated 1998).
In brackets after ≈: the same amount, converted by molar mass.

Experiments:
[1] = system: vancomycin-resistant enterococci; assay: broth micro-dilution, mean geometric MIC; format: cell-based, Enterococcus faecium and Enterococcus faecalis; conditions: enterococci, 24-hour incubation
[2] = system: Staphylococcus aureus SA1199B; format: cell-based
Experimental: (§1) The MIC's were determined using a standard broth micro-dilution assay.

[3] = system: Staphylococcus aureus S13E; format: cell-based
Experimental: as §1

[4] = system: Staphylococcus aureus 491; assay: broth micro-dilution MIC; format: cell-based
Experimental: as §1

Entercoccus faecium 276 = assay: broth micro-dilution MIC; format: cell-based
Experimental: as §1

[5] = system: Staphylococcus aureus X400; assay: broth micro-dilution MIC; format: cell-based
Experimental: as §1

[6] = system: Staphylococcus aureus 447; assay: broth micro-dilution MIC; format: cell-based
Experimental: as §1

[7] = system: Staphylococcus aureus 446; assay: broth micro-dilution MIC; format: cell-based
Experimental: as §1

[8] = system: Staphylococcus aureus X778; assay: broth micro-dilution MIC; format: cell-based
Experimental: as §1

[9] = system: Staphylococcus aureus SA1199A; assay: broth micro-dilution MIC; format: cell-based
Experimental: as §1

[10] = system: Staphylococcus aureus 489; assay: broth micro-dilution MIC; format: cell-based
Experimental: as §1

[11] = system: Entercoccus faecium 180-1; assay: broth micro-dilution MIC; format: cell-based
Experimental: as §1

[12] = system: Staphylococcus aureus SA1199; assay: broth micro-dilution MIC; format: cell-based
Experimental: as §1

[13] = system: Streptococcus pyogenes C203; assay: broth micro-dilution MIC; format: cell-based
Experimental: as §1

[14] = system: Haemophilus influenzae RD; assay: broth micro-dilution MIC; format: cell-based; conditions: Haemophilus influenzae RD
Experimental: (§2) The formula I compounds have in vitro and in vivo activity against Gram-positive pathogenic bacteria. The MIC's were determined using a standard broth micro-dilution assay.

[15] = system: Staphylococcus epidermidis 270; assay: broth micro-dilution MIC; format: cell-based
Experimental: as §2

Escherichia coli EC14 = assay: broth micro-dilution MIC; format: cell-based
Experimental: as §2

Entercoccus faecium 2041 = assay: broth micro-dilution MIC; format: cell-based; conditions: Entercoccus faecium 2041
Experimental: as §2

[16] = system: Staphylococcus haemolyticus 415; assay: broth micro-dilution MIC; format: cell-based
Experimental: as §2

[17] = system: Staphylococcus haemolyticus 105; assay: broth micro-dilution MIC; format: cell-based
Experimental: as §2

[18] = system: Enterococcus gallinarum 245; assay: broth micro-dilution MIC; format: cell-based; conditions: Enterococcus gallinarum 245
Experimental: as §2

[19] = system: Streptococcus pneumoniae P1; assay: broth micro-dilution MIC; format: cell-based
Experimental: as §2

Entercoccus faecium 180 = assay: broth micro-dilution MIC; format: cell-based; conditions: Entercoccus faecium 180
Experimental: as §2

[20] = system: vancomycin-susceptible enterococci; assay: broth micro-dilution, mean geometric MIC; format: cell-based, Enterococcus faecium and Enterococcus faecalis; conditions: enterococci, 24-hour incubation

| Compound | mean geometric MIC, Vancomycin Resistant Strains [1] | MIC [2] | MIC [3] | MIC [4] | MIC (Entercoccus faecium 276) | MIC [5] | MIC [6] | MIC [7] | MIC [8] | MIC [9] | MIC [10] | MIC [11] | MIC [12] | MIC [13] | MIC [14] | MIC [15] | MIC (Escherichia coli EC14) | MIC (Entercoccus faecium 2041) | MIC [16] | MIC [17] | also measured |
| --- | --- | --- | --- | --- | --- | --- | --- | --- | --- | --- | --- | --- | --- | --- | --- | --- | --- | --- | --- | --- | --- |
| CC(C)CC(C(=O)NC1C(=O)NC(CC(N)=O)C(=O)NC2C(=O)NC3C(=O)NC(C(=O)NC(C(=O)O)c4cc(O)cc(O)c4-c4cc3ccc4O)C(OC3CC(C)(N)C(O)C(C)O3)c3ccc(c(Cl)c3)Oc3cc2cc(c3OC2OC(CO)C(O)C(O)C2OC2CC(C)(NCc3cc4ccccc4s3)C(O)C(C)O2)Oc2ccc(cc2Cl)C1O)N(C)Cc1cc2ccccc2s1 (stereo not drawn) [Compound 276] | 23 µg/mL | 1 µg/mL (≈ 0.531 µM) | 2 µg/mL (≈ 1.06 µM) | 1 µg/mL (≈ 0.531 µM) | 1 µg/mL (≈ 0.531 µM) | 2 µg/mL (≈ 1.06 µM) | 4 µg/mL (≈ 2.12 µM) | 1 µg/mL (≈ 0.531 µM) | 1 µg/mL (≈ 0.531 µM) | 0.25 µg/mL (≈ 0.133 µM) | 1 µg/mL (≈ 0.531 µM) | 0.25 µg/mL (≈ 0.133 µM) | 1 µg/mL (≈ 0.531 µM) | ≤ 0.06 µg/mL | > 64 µg/mL | 4 µg/mL (≈ 2.12 µM) | > 64 µg/mL | 1 µg/mL (≈ 0.531 µM) | 4 µg/mL (≈ 2.12 µM) | 4 µg/mL (≈ 2.12 µM) | MIC [18]: 4 µg/mL (≈ 2.12 µM); MIC [19]: ≤ 0.06 µg/mL; MIC (Entercoccus faecium 180): 4 µg/mL (≈ 2.12 µM); mean geometric MIC, Vancomycin Sensitive Strains [20]: 1.3 µg/mL |
| COc1ccc2nc(-c3ccccc3)cc(CNC3(C)CC(OC4C(Oc5c6cc7cc5Oc5ccc(cc5Cl)C(OC5CC(C)(N)C(O)C(C)O5)C5NC(=O)C(NC(=O)C7NC(=O)C(CC(N)=O)NC(=O)C(NC(=O)C(CC(C)C)N(C)Cc7cc(-c8ccccc8)nc8ccc(OC)cc78)C(O)c7ccc(c(Cl)c7)O6)c6ccc(O)c(c6)-c6c(O)cc(O)cc6C(C(=O)O)NC5=O)OC(CO)C(O)C4O)OC(C)C3O)c2c1 (stereo not drawn) [Compound 277] | 32 µg/mL | 16 µg/mL (≈ 7.67 µM) | 16 µg/mL (≈ 7.67 µM) | 8 µg/mL (≈ 3.83 µM) | 1 µg/mL (≈ 0.479 µM) | 32 µg/mL (≈ 15.3 µM) | > 64 µg/mL | 64 µg/mL (≈ 30.7 µM) | 32 µg/mL (≈ 15.3 µM) | 1 µg/mL (≈ 0.479 µM) | 16 µg/mL (≈ 7.67 µM) | 0.5 µg/mL (≈ 0.24 µM) | 16 µg/mL (≈ 7.67 µM) | ≤ 0.06 µg/mL | > 64 µg/mL | 16 µg/mL (≈ 7.67 µM) | > 64 µg/mL | 2 µg/mL (≈ 0.958 µM) | > 64 µg/mL | > 64 µg/mL | MIC [18]: > 64 µg/mL; MIC [19]: ≤ 0.06 µg/mL; MIC (Entercoccus faecium 180): 2 µg/mL (≈ 0.958 µM); mean geometric MIC, Vancomycin Sensitive Strains [20]: 1.1 µg/mL |
| CNC(CC(C)C)C(=O)NC1C(=O)NC(CC(N)=O)C(=O)NC2C(=O)NC3C(=O)NC(C(=O)NC(C(=O)O)c4cc(O)cc(O)c4-c4cc3ccc4O)C(OC3CC(C)(NCc4ccc(SC)cc4)C(O)C(C)O3)c3ccc(c(Cl)c3)Oc3cc2cc(c3OC2OC(CO)C(O)C(O)C2OC2CC(C)(NCc3ccc(SC)cc3)C(O)C(C)O2)Oc2ccc(cc2Cl)C1O (stereo not drawn) [Compound 278] | 8 µg/mL | 0.5 µg/mL (≈ 0.268 µM) | 1 µg/mL (≈ 0.536 µM) | 1 µg/mL (≈ 0.536 µM) | 0.25 µg/mL (≈ 0.134 µM) | 0.25 µg/mL (≈ 0.134 µM) | 2 µg/mL (≈ 1.07 µM) | 1 µg/mL (≈ 0.536 µM) | 0.5 µg/mL (≈ 0.268 µM) | 1 µg/mL (≈ 0.536 µM) | 0.5 µg/mL (≈ 0.268 µM) | ≤ 0.06 µg/mL | 0.25 µg/mL (≈ 0.134 µM) | ≤ 0.06 µg/mL | > 64 µg/mL | 1 µg/mL (≈ 0.536 µM) | > 64 µg/mL | 0.125 µg/mL (≈ 0.067 µM) | 2 µg/mL (≈ 1.07 µM) | 0.5 µg/mL (≈ 0.268 µM) | MIC [18]: 2 µg/mL (≈ 1.07 µM); MIC [19]: ≤ 0.06 µg/mL; MIC (Entercoccus faecium 180): 1 µg/mL (≈ 0.536 µM); mean geometric MIC, Vancomycin Sensitive Strains [20]: 0.29 µg/mL |
| CC(C)CC(C(=O)NC1C(=O)NC(CC(N)=O)C(=O)NC2C(=O)NC3C(=O)NC(C(=O)NC(C(=O)O)c4cc(O)cc(O)c4-c4cc3ccc4O)C(OC3CC(C)(N)C(O)C(C)O3)c3ccc(c(Cl)c3)Oc3cc2cc(c3OC2OC(CO)C(O)C(O)C2OC2CC(C)(NCc3cccnc3)C(O)C(C)O2)Oc2ccc(cc2Cl)C1O)N(C)Cc1cccnc1 (stereo not drawn) [Compound 280] | > 128 µg/mL | 0.5 µg/mL (≈ 0.282 µM) | 2 µg/mL (≈ 1.13 µM) | 2 µg/mL (≈ 1.13 µM) | 0.5 µg/mL (≈ 0.282 µM) | 1 µg/mL (≈ 0.563 µM) | 8 µg/mL (≈ 4.51 µM) | 2 µg/mL (≈ 1.13 µM) | 0.5 µg/mL (≈ 0.282 µM) | 0.5 µg/mL (≈ 0.282 µM) | 1 µg/mL (≈ 0.563 µM) | 0.25 µg/mL (≈ 0.141 µM) | 2 µg/mL (≈ 1.13 µM) | 0.125 µg/mL (≈ 0.0704 µM) | > 64 µg/mL | 8 µg/mL (≈ 4.51 µM) | > 64 µg/mL | 1 µg/mL (≈ 0.563 µM) | 32 µg/mL (≈ 18 µM) | > 64 µg/mL | MIC [18]: 32 µg/mL (≈ 18 µM); MIC [19]: 0.125 µg/mL (≈ 0.0704 µM); MIC (Entercoccus faecium 180): 32 µg/mL (≈ 18 µM); mean geometric MIC, Vancomycin Sensitive Strains [20]: 7 µg/mL |
| CC(C)CC(C(=O)NC1C(=O)NC(CC(N)=O)C(=O)NC2C(=O)NC3C(=O)NC(C(=O)NC(C(=O)O)c4cc(O)cc(O)c4-c4cc3ccc4O)C(OC3CC(C)(N)C(O)C(C)O3)c3ccc(c(Cl)c3)Oc3cc2cc(c3OC2OC(CO)C(O)C(O)C2OC2CC(C)(NCc3ccccn3)C(O)C(C)O2)Oc2ccc(cc2Cl)C1O)N(C)Cc1ccccn1 (stereo not drawn) [Compound 281] | > 128 µg/mL | 32 µg/mL (≈ 18 µM) | 32 µg/mL (≈ 18 µM) | > 64 µg/mL | 8 µg/mL (≈ 4.51 µM) | > 64 µg/mL | > 64 µg/mL | 64 µg/mL (≈ 36.1 µM) | 16 µg/mL (≈ 9.02 µM) | 4 µg/mL (≈ 2.25 µM) | 32 µg/mL (≈ 18 µM) | 4 µg/mL (≈ 2.25 µM) | > 64 µg/mL | 0.5 µg/mL (≈ 0.282 µM) | > 64 µg/mL | > 64 µg/mL | > 64 µg/mL | 8 µg/mL (≈ 4.51 µM) | > 64 µg/mL | > 64 µg/mL | MIC [18]: > 64 µg/mL; MIC [19]: ≤ 0.06 µg/mL; MIC (Entercoccus faecium 180): > 64 µg/mL; mean geometric MIC, Vancomycin Sensitive Strains [20]: 37 µg/mL |
